According to patent US4855497A, “Novel diamine derivatives” (Chugai Seiyaku Kabushiki Kaisha, priority 1985, dated 1989):

Experiments:
Acetylcholine [1] = assay: Activity against acetylcholine (II): inhibition of acetylcholine-induced saliva excretion; format: in vivo, Beagle dogs; details: dose 100 (g), intra-arterially, 1 min before acetylcholine
Experimental: Activity Against Acetylcholine (II)
Beagle dogs were anesthetized by intravenous administration of pentobarbital (35 mg/kg). The following experiment was conducted in accordance with the method of Sato et al. (Tohoku J. Exp. Med., 108, 377-388, 1982). The left lower jaw of each animal was incised to identify the submandibular gland, the duct through which saliva was excreted from that gland, and the artery nourishing the same gland. A polyethylene tube was first inserted into the excretory duct. Then, a cannula was inserted into the submandibular gland controlling artery and said gland was perfused with the arterial blood drawn from the femoral artery. The tube from the duct was connected to a drop counter and the number of drops of excreted saliva was recorded. The excretion of saliva was induced by intra-arterial administration of acetylcholine.
One minute before the acetylcholine administration, […] (0.1 ml) of a selected compound was administered intra-arterially and its ability to inhibit saliva excretion was examined.

[2] = system: Chloroform-Induced Arrythmia; assay: Activity against chloroform-induced arrythmia in rats (prevention of ventricular fibrillation); format: in vivo, Sprague-Dowley male rats; details: for Percent prevention (ventricular fibrillation), starved: starved rats
Experimental: Activity Aganist Chloroform-Induced Arrythmia in Rats
The following procedures were substantially in accordance with the method of Erker and Baker (Arch. Int. Pharmacodyn., 243, 97-102, 1980). Aminophylline (20 mg/kg) was injected intramuscularly into two groups of Sprague-Dowley male rats (3-4 wk. old, 7 animals per group) weighing about 100 g on average, one group having been starved for 24 hours and the other group not starved. Thirty minutes after the injection, the animals were put into a 4,000-ml glass beaker with a lid that contained gauze impregnated with […] of chloroform. Fifty minutes later, the animals were recovered from the beaker and their chests were incised to check their hearts for the presence of ventricular fibrillation. The features of their cardiac rhythm were examined by the electrocardiogram. When no distinct fibrillation was observed, the heart was touched with tweezers. The heart was identified as fibrillar when rapid irregular twitchings occured on the surface of ventricles and continued for at least 5 seconds after chest incision or mechanical stimulation.
Selected compounds suspended in 3% gum arabic were administered in various doses to the rats either intraperitoneally (i.P.) or perorally (P.O.) 30 minutes prior to treatment with chloroform. The percent prevention of ventricular fibrillation was determined for each rat. Only a 3% gum arabic solution was administered to the control group.

Acetylcholine [3] = assay: Activity against acetylcholine (I): inhibition of acetylcholine-induced contraction of isolated ilea; parameters: species or system SD/Slc male rats; details: 10^-4 M; 10^-6 M acetylcholine; isolated rat ilea
Experimental: Activity Against Acetylcholine (I)
SD/Slc male rats (10-mo. old, four animals per group) were clubbed dead and their ilea were immediately extracted. The ilea were suspended under a load of 1 g in a Krebs-Henseleit solution oxygenated with a mixture of 95% O2 +5% CO2 at 27° C., and the ileal reaction was measured isotonically.
The anti-cholinergic activity of each of the compounds tested was determined in terms of percent inhibition against the contractive reaction of 10^-6 M of acetylcholine (causing 60-70% of the maximum contractive reaction of acetylcholine).

[4] = system: Aconitine-Induced Arrythmia; assay: Activity against aconitine-induced arrythmia in rats; format: in vivo, Sprague-Dowley male rats; details: aconitine 1 μg/kg/min; for Time required for ventricular extrasystole to occur: untreated 14.3 min; for Time required for ventricular fibrillation to occur: untreated 35.3 min
Experimental: Activity Against Aconitine-Induced Arrythmia in Rats
Using Sprague-Dowley male rats (9-10 wk. old, two animals per group) weighing about 350 g on average, the following experiment was conducted substantially in compliance with the method of Vargftig et al. (Europ. J. Pharmacol., 6, 49, 1969).
The animals were anesthetized by intraperitoneal administration of 1 g/kg of urethane. A polyethylene cannula was inserted into both the femoral artery and vein of each animal; the drug was administered through the femoral vein while the blood pressure was measured at the femoral artery.
While the aconitine solution was continuously infused into the vein at a rate of 1 μg/kg/min, a selected compound was administered intravenously at 5-minute intervals. In order to prevent the aconitine-induced dyspnea from interfering with the experimental results, 0.2 mg/kg of d-tubocurarine was administered intravenously to each animal, which then was subjected to artificial respiration through a cannula inserted into the trachea (80 breathings/min, with 4 ml of air supplied by a single ventillation).
Identification of arrythmia was made by the ECG in the second induction period; the appearance of a QRS complex with sharply downward deflections was used as an indication of ventricular arrythmia and observation was continued until ventricular fibrillation appeared. The results are shown in Table 3 in terms of the times required for ventricular extrasystole and ventricular fibrillation to occur.

[5] = system: Ouabain-Induced Arrythmia; assay: Activity against ouabain-induced arrythmia in guinea pigs; format: in vivo, Hartly male guinea pigs; details: ouabain 5 μg/kg/min; for Time required for ventricular extrasystole to occur: untreated 28.5 min; for Time required for ventricular fibrillation to occur: untreated 35.1 min; for Time required for cardiac arrest to occur: untreated 41.2 min
Experimental: Activity Against Ouabain-Induced Arrythmia in Guinea Pigs
Hartly male guinea pigs (5-6 wk. old, two animals per group) weighing about 350 g on average were anesthetized by intraperitoneal administration of 1.2 g/kg of urethane. A polyethylene cannula was inserted into both the cervical vein and the carotid artery; the drug was administered through the cervical vein while the blood pressure was measured at the carotid artery. A selected test compound was administered 5 minutes before the sustained intravenous infusion of the ouabain solution (5 μg/kg/min) as described in J. Pharmacol. Exp. Ther., 136, 227, 1962). Identification of arrythmia was made by the ECG in the second induction period; the appearance of a QRS complex with sharply downward deflictions was used as an indication of ventricular arrythmia and observation was continued until ventricular fibrillation and cardiac arrest appeared. The results are shown in Table 4 in terms of the times required for ventricular extrasystole, ventricular fibrillation and cardiac arrest to occur.

Blood Sugar Level = assay: Effect on blood sugar level; format: in vivo, SD/Slc male rats; details: starved overnight
Experimental: Effect on Blood Sugar Level
After starving SD/Slc male rats (body weight, 250 g; 6 animals per group) overnight, 20-μl blood samples were drawn from the tail vein of each rat while it was not anesthetized. Records were taken of the sugar level in each blood sample. A selected compound of the present invention was suspended in 3% gum arabic and the suspension was administered perorally to each rat in an amount of 50 or 200 mg/kg. At 2, 4 and 6 hours of the administration, blood samples were taken and their blood sugar levels were measured. Measurements of blood sugar levels were conducted with a New Blood Sugar Test (Boehringer, Mannheim).
To the control group, a 3% gum arabic solution was administered, and diisopyramide was administered as a comparative drug.

[6] = system: sleeping induced by hexobarbital; assay: Effect on the time of sleeping induced by hexobarbital; format: in vivo, ddY/Slc male rats
Experimental: Effect on the Time of Sleeping Induced by Hexobarbital
A selected compound of the present invention was administered perorally to ddY/Slc male rats (5-6 wk. old, 10 animals per group) in an amount of 50 or 100 mg/kg. One hour later, […] of hexobarbital was administered intraperitoneally to each animal, thereby causing the loss of orthogonal reflex. The time required for the recovery of orthogonal reflex was measured for each animal.
As comparative drugs, 50 or 100 mg/kg of disopyramide and 5 mg/kg of diazepam were administered perorally.

[7] = cited from earlier work

Compound: Cc1cccc(C)c1NC(=O)CCNCCN(C(C)C)C(C)C [Compound No. 1, 3-(diisopropylaminoethylamino)-2',6'-dimethylpropionanilide]
- Percent inhibition (saliva excretion) (Acetylcholine [1]): 0%
- responders at 25 mg/kg ([2]; Rattus norvegicus, ip, 0.5 h, not starved rats, 25 mg/kg i.P., 30 min prior to chloroform, read-out: Percent prevention (ventricular fibrillation), not starved): 85.7%
- responders at 1 mg/kg ([2]; Rattus norvegicus, po, 0.5 h, not starved rats, 1 mg/kg P.O., 30 min prior to chloroform, read-out: Percent prevention (ventricular fibrillation), not starved): 85.7%
- Percent prevention (ventricular fibrillation), starved ([2]; 1 mg/kg P.O., 30 min prior to chloroform): 85.7%
- Percent inhibition (contractive reaction of acetylcholine) (Acetylcholine [3]): 20%
- Time required for ventricular extrasystole to occur ([4]; 5 mg/kg intravenously): 45.2 min
- Time required for ventricular fibrillation to occur ([4]; 5 mg/kg intravenously): > 120.0 min
- Time required for ventricular extrasystole to occur ([5]; 5 mg/kg via cervical vein): 42.1 min
- Time required for ventricular fibrillation to occur ([5]; 5 mg/kg via cervical vein): 45.4 min
- Time required for cardiac arrest to occur ([5]; 5 mg/kg via cervical vein): 51.3 min
- Blood sugar level, 0 hr (mean ± S.E.) (Blood Sugar Level; 50 mg/kg perorally): 68.4 ± 4.0 mg/dL
- Blood sugar level, 2 hr (mean ± S.E.) (Blood Sugar Level; 50 mg/kg perorally): 63.0 ± 4.1 mg/dL
- Blood sugar level, 4 hr (mean ± S.E.) (Blood Sugar Level; 50 mg/kg perorally): 58.1 ± 2.2 mg/dL
- Blood sugar level, 6 hr (mean ± S.E.) (Blood Sugar Level; 50 mg/kg perorally): 59.9 ± 2.6 mg/dL
- Blood sugar level, 0 hr (mean ± S.E.) (Blood Sugar Level; 200 mg/kg perorally): 83.7 ± 3.0 mg/dL
- Blood sugar level, 2 hr (mean ± S.E.) (Blood Sugar Level; 200 mg/kg perorally): 55.4 ± 5.7 mg/dL
- Blood sugar level, 4 hr (mean ± S.E.) (Blood Sugar Level; 200 mg/kg perorally): 73.4 ± 7.2 mg/dL
- Blood sugar level, 6 hr (mean ± S.E.) (Blood Sugar Level; 200 mg/kg perorally): 71.2 ± 3.2 mg/dL

Compound: CN1C(=O)CN=C(c2ccccc2)c2cc(Cl)ccc21 [Diazepam]
- Time of sleeping (mean ± S.E.) ([6]; 5 mg/kg perorally, ** p < 0.05 vs untreated (53.9 ± 2.7)): 136.4 ± 5.8 min

Compound: CC(C)N(CCC(C(N)=O)(c1ccccc1)c1ccccn1)C(C)C (centres unmarked) [Disopyramide, reference compound]
- Percent inhibition (saliva excretion) (Acetylcholine [1]): 41.7%
- action on the cardiac muscles ([7]; clinical): inhibitory action on the cardiac muscles
- undesirable side effects ([7]; clinical, presumably from anti-cholinergic action): hydrodipsia, anuresis, constipation, vertigo, blurring of vision and vomiting
- incidence of anuresis ([7]; patients with prostatomegaly and neurotic bladders due to diabetes): High incidence of anuresis
- activity in peroral administration ([7]; peroral, clinical): sustained activity
- responders at 10 mg/kg ([2]; Rattus norvegicus, po, 0.5 h, read-out: Percent prevention (ventricular fibrillation), not starved): 37.6%
- Percent prevention (ventricular fibrillation), starved ([2]; 10 mg/kg P.O., 30 min prior to chloroform): 49.6%
- Percent inhibition (contractive reaction of acetylcholine) (Acetylcholine [3]): 89%
- Time required for ventricular extrasystole to occur ([4]; 10 mg/kg intravenously): 22.6 min
- Time required for ventricular fibrillation to occur ([4]; 10 mg/kg intravenously): 78.2 min
- Time of sleeping (mean ± S.E.) ([6]; 50 mg/kg perorally, H3PO4 salt, untreated 53.9 ± 2.7): 59.8 ± 3.3 min
- Time of sleeping (mean ± S.E.) ([6]; 100 mg/kg perorally, H3PO4 salt, untreated 53.9 ± 2.7): 53.5 ± 2.4 min
- Time required for ventricular extrasystole to occur ([5]; 10 mg/kg via cervical vein): 41.1 min
- Time required for ventricular fibrillation to occur ([5]; 10 mg/kg via cervical vein): 54.3 min
- Time required for cardiac arrest to occur ([5]; 10 mg/kg via cervical vein): 59.6 min
- Blood sugar level, 0 hr (mean ± S.E.) (Blood Sugar Level; 50 mg/kg perorally): 75.2 ± 5.9 mg/dL
- Blood sugar level, 2 hr (mean ± S.E.) (Blood Sugar Level; 50 mg/kg perorally): 46.9 ± 1.7 mg/dL
- Blood sugar level, 4 hr (mean ± S.E.) (Blood Sugar Level; 50 mg/kg perorally): 41.9 ± 2.9 mg/dL
- Blood sugar level, 6 hr (mean ± S.E.) (Blood Sugar Level; 50 mg/kg perorally): 45.8 ± 2.0 mg/dL
- Blood sugar level, 0 hr (mean ± S.E.) (Blood Sugar Level; 200 mg/kg perorally): 64.5 ± 5.6 mg/dL
- Blood sugar level, 2 hr (mean ± S.E.) (Blood Sugar Level; 200 mg/kg perorally): 41.7 ± 3.1 mg/dL
- Blood sugar level, 4 hr (mean ± S.E.) (Blood Sugar Level; 200 mg/kg perorally): 29.7 ± 3.2 mg/dL
- Blood sugar level, 6 hr (mean ± S.E.) (Blood Sugar Level; 200 mg/kg perorally): 36.9 ± 2.6 mg/dL

Compound: CCN(CC)CC(=O)Nc1c(C)cccc1C [Lidocaine, reference compound]
- drug level in blood ([7]; peroral, clinical): too low to attain the desired effectiveness
- Percent prevention (ventricular fibrillation), starved ([2]; 20 mg/kg i.P., 30 min prior to chloroform): 77.1%
